Measurements as given in patent USRE45916E1, “Intraoperative imaging of renal cortical tumors and cysts” (University of Rochester, priority 2006, dated 2016).
“Also recorded” adds a separate entry of the source. Read-outs that look alike come from different tables or passages of the source.

Assays:
[1] = test system: renal cortical tumors and cysts; assay: Clinical trial: intraoperative near infrared fluorescence (NIRF) imaging of the kidney after intravenous ICG in radical or partial nephrectomy patients; type: in vivo, human
Method: Following Institutional Review Board approval, a clinical trial of the invention was conducted. Ten patients presenting for radical or partial nephrectomy were enrolled in the trial. After the kidney was mobilized (typically, only one of the patient's kidneys is involved in such operations), ˜10 cc (2.5 mg/ml) of ICG was injected intravenously. Shortly after injection, near infrared fluorescence (NIRF) imaging was conducted and recorded using a LUNA™ NIRF system (Novadaq Technologies Inc, Mississauga, Canada). The first two patients selected presented for radical nephrectomy. […] After removal, the kidneys were studied by NIRF imaging to confirm that normal and tumor tissue could be distinguished. […] Eight of these patients were studied.

[2] = Clinical trial: safety of intravenous ICG in nephrectomy patients; type: in vivo, human; conditions: ten patients, ICG intravenously
Method: Following Institutional Review Board approval, a clinical trial of the invention was conducted. Ten patients presenting for radical or partial nephrectomy were enrolled in the trial. After the kidney was mobilized (typically, only one of the patient's kidneys is involved in such operations), ˜10 cc (2.5 mg/ml) of ICG was injected intravenously. Shortly after injection, near infrared fluorescence (NIRF) imaging was conducted and recorded using a LUNA™ NIRF system (Novadaq Technologies Inc, Mississauga, Canada).
Microscopy and histological studies were performed on excised tissue. […] Histological examination using hematoxylin and eosin staining confirmed the location of differential ICG fluorescence in tumor and normal renal tissue. All surgical margins were negative: 4 mm (the range of the margin was from 2-10 mm).

[3] = Animal studies: ICG injected into the penis to image nerves, kidney fluorescence observed; type: in vivo; conditions: animals
Source text: The present invention stems in part from studies we took in using the near infrared fluorescent dye indocyanine green (“ICG”) to image cavernous nerves of the penis. When abdominal incisions were made, we noted that the kidneys were fluorescent for hours to days after ICG administration, even though ICG is cleared quickly from the circulation. Because we are urologists, we are aware that kidney tumors tend to be hypervascular and develop rich vascular beds that are not uniform. We formed the hypothesis that the vascular beds would tend to impede the flow of ICG out of the tumor. We realized that any difference in admission or retention of fluorescent dye between normal and tumor tissue would result in different amounts of fluorescence, and that these differences could be exploited to detect the presence or absence of tumors in areas of the kidney. We hypothesized that kidney tumors would tend to retain ICG more than areas of the kidney with normal vasculature, and that areas within the kidney that fluoresced when exposed to light of an appropriate excitation frequency would identify the presence of tumors.
Typically, the dye is administered sufficiently before the intended surgery to permit the kidney to take up the dye, but not so long before the surgery that the dye has been cleared by the liver or otherwise eliminated from the body. […]

intrinsic brain tumors = conditions: nine patients, ICG as intravenous contrast-enhancement agent; cited from earlier work
[4] = cited from earlier work
[5] = mammals, several months after the treatment, cited from earlier work

Compound	surgical margins ([1]; partial nephrectomy under NIRF imaging)	fluorescence of complex / hemorrhagic cysts under NIRF imaging ([1]; patients, ICG intravenously)	fluorescence of normal kidney tissue under NIRF imaging ([1]; patients, ICG intravenously)	fluorescence of kidney tumors under NIRF imaging ([1]; patients, ICG intravenously, ~10 cc (2.5 mg/ml), against normal kidney parenchyma)	fluorescence of benign cysts under NIRF imaging ([1]; patients, ICG intravenously, compared to normal parenchyma)	effects of the dye on post-operative hepatorenal function [2]	hypersensitivity reactions [2]	kidney fluorescence 18 hours after injection ([3]; ICG injected into the penis, 18 hours after injection)	duration of kidney fluorescence after ICG administration ([3]; seen at abdominal incision)	dynamic optical signals of brain tissue and tumors (intrinsic brain tumors)	optical imaging of resection margins in malignant tumors (intrinsic brain tumors)	metabolism ([4]; in the body)	excretion ([4]; in vivo)	reabsorption from the intestine / enterohepatic recirculation ([4]; in vivo)	distribution after intravenous injection ([4]; with normal vascular permeability)	neuronal toxicity [5]	neuronal toxicity ([5]; listed as fluorogold)
CC1(C)C(/C=C/C=C/C=C/C=C2\N(CCCCS(=O)(=O)O)c3ccc4ccccc4c3C2(C)C)=[N+](CCCCS(=O)(=O)[O-])c2ccc3ccccc3c21 [ICG, indocyanine green]	negative	hypo- or non-fluorescent; also recorded: NIRF characteristics of renal cell carcinoma	fluoresced brightly; also recorded: brightly fluorescent	non-fluorescing “black” or hypofluorescent “gray” areas; also recorded: hypo- or non-fluorescent areas; also recorded: hypo-fluorescent or non-fluorescent areas	even more fluorescent than did normal tissue; also recorded: increased fluorescence compared to the normal parenchyma	No hypersensitivity reactions or effects of the dye on post-operative hepatorenal function were observed	No hypersensitivity reactions	intense fluorescence	hours to days	differences in the dynamic optical signals among normal brain, low-grade astrocytomas, and malignant astrocytomas	differences between adjacent normal tissue and remaining tumor tissue	not metabolized in the body	excreted exclusively by the liver	not reabsorbed from the intestine and does not undergo enterohepatic recirculation	remains intravascular	–	–
N=C(N)c1ccc(/C=C/c2ccc(C(=N)N)cc2O)cc1 [Fluorogold]	–	–	–	–	–	–	–	–	–	–	–	–	–	–	–	low evidence of neuronal toxicity	without evidence of neuronal toxicity
